# “Also recorded” adds a separate entry of the source.
# Columns and labels:
# NF-κB [1] = assay: LPS-induced NF-κB-dependent gene expression in THP-1 cells (qPCR); type: cell-based, Human; conditions: 30 μM for 2 hs, then LPS 100 ng/mL
# Experimental: The effect of BANA or BA over NF-κB-dependent gene expression was studied by qPCR using THP-1 cells. THP-1 cells were differentiated into macrophages and treated with BANA (30 μM) or BA (30 μM) for 2 hs, followed by stimulation with LPS (100 ng/mL, for 3-4 h).
# TNFα, CCL2, IL6 and IL-1β expression was analyzed by RT-PCR. Real-time PCR analysis was conducted as follows: Total mRNA was extracted from THP-1 cells to quantify TNFα, IL-6 and MCP-1-fold change gene expression over control (β-actin) by qPCR assay. Purified RNA was transcripted to cDNA using Superscript II Reverse Transcriptase with Oligo (dT). The cDNA for real-time PCR was obtained with a Piko 24 Thermal Cycler (Thermo Scientific). mRNA expression analysis was calculated using the ddCt method with β-Actin as the house keeping gene. SYBR Green was used as DNA binding dye and the qRT-PCR was done in an Eco Illumina thermocycler. Human primers sequences were used for THP-1 cells: […]
# NF-κB [2] = assay: RT-qPCR of NF-κB-associated cytokine mRNA in LPS-stimulated SOD1^G93A primary microglia; type: cell-based, rat; conditions: adult microglia isolated from symptomatic SOD1^G93A rats
# Experimental: FIG. 8F: Analysis by RT-qPCR of mRNA levels of NF-κB-associated proinflammatory cytokines CCL2, IL-6, IL-1β, and TNFα following LPS-stimulation in SOD1^G93A primary microglia.
# BANA inhibits LPS-induced NF-κB-p65 nuclear translocation in SOD1^G93A microglia. Nuclear NF-κB-p65 colocalizing with DAPI nuclear staining is denoted in yellow. […] All quantitative data are expressed as mean±SEM; data were analyzed by Ordinary one-way ANOVA followed by Tukey's multiple comparisons test, ****p<0,0001, 3 replicates of 4 independent experiments. Scale bar=20 μm. […] BANA prevents NF-κB-mediated gene transcription induced by LPS. Data are expressed as mean±SEM; data were analyzed by Ordinary one-way ANOVA followed by Tukey's multiple comparisons test, *p=0.0395 (CCL2) *p=0.0409 (IL-6) **p=0.0049 (IL-10) *p=0.0292 **p=0.0063 (TNFα). 2 replicates of 3 independent experiments.
# inflammasome = assay: LPS/ATP-induced inflammasome activation in BV2 cells (western blot of IL-1β); type: cell-based, murine; conditions: treatment in second signal (ATP), compared to vehicle or sodium benzoate
# Experimental: FIG. 3B: For inflammasome activation, BV2 cells were treated with LPS and ATP. BANA or B.A treatment was performed in second signal (ATP). Presence of pro-IL1β in cell lysates (CL) and cleaved IL-1β in supernatants (SN) was determined by western blot analysis. […] All data are expressed as mean±SEM.
# [3] = tested on: murine BV2 microglial cell line; assay: Cell viability / toxicity by sulforhodamine B assay; type: cell-based
# Experimental: (§1) The murine BV2 microglial cell line was used to analyze the toxicity and anti-inflammatory effects of BANA. Baseline cell viability was established in murine microglia cell line BV2 by sulforhodamine B assay. Briefly, cells were plated in a 96-multiwell plate and incubated with different concentrations of BANA (5-110 μM) for 24 h. After media removal, cells were washed twice with PBS pH=7.4. Cells were fixed with TCA for 1 hour at 4° C. and then washed five times with distilled water. 50 μL of sulforhodamine B 0.4% m/v in 1% acetic acid was added to each well and incubated 30 minutes at room temperature. After staining, the plate was washed at least five times with 1% acetic acid. Once the plate was dry the protein-bound dye was dissolved in 10 mM Tris and the absorbance at 570 nm was read using a microplate spectrophotometer (FIG. 3A).
# [4] = as above; type: cell-based; conditions: mouse, BV2 microglial cells; BV2 cell culture; read-out: LC50
# Experimental: as §1
# NF-kB = NF-kB activation after sciatic nerve section in NF-kB-RE-Luc mice (in vivo luminescence); design: species or system mouse; conditions: oral 100 mg/kg/day day 0 to day 4, vs vehicle
# Experimental: FIG. 17A: Scheme of the experimental design in which NF-kB-RE-Luc tg mice were treated with 100 mg/kg/day of BANA or vehicle starting immediately before sciatic nerve section (day 0) until day 4.
# For NF-kB in vivo imaging studies, the NF-kB-RE-Luc random transgenic mouse model (Taconic, BALB/c-Tg(Rela-luc)31Xen) aged 6-8 weeks was used. These animals carry a transgene containing 6 NF-kB-responsive elements (RE) from the CMVα (immediate early) promoter placed upstream of a basal SV40 promoter, and a modified firefly luciferase cDNA (Promega pGL3). Animals were randomized divided into two groups and orally administrated with 100 mg/kg of BANA or Vehicle (phosphate buffer) starting immediately before sciatic nerve section in the right hindlimb and continuing for 4 days. At day 1, 2 and 4 post-surgery, differences in luciferase activity were compared between groups. To accomplish that, 150 mg/kg of the substrate D-luciferin (#K9918PE, XenoLight) dissolved in PBS, pH 7.4, was injected intraperitoneally to each mouse. […] Changes in NF-kB activity were quantified after comparing the differences of luminescence in the right hindlimb between groups, using ImageJ software.
# NF-κB [5] = assay: TNFα-induced NF-κB activation in HT-29 NF-κB reporter cell line (flow cytometry); type: cell-based; conditions: BANA 10, 20, 30 μM, BA 30 μM, DMF 30 μM before TNFα
# Experimental: The effects of BANA on LPS- or TNFα-induced NF-κB activation were also assayed in cell cultures of BV2 microglial cell line and primary adult microglia isolated from symptomatic SOD1^G93A rats, and HT-29 NF-κB reporter cell line, respectively.
# NF-κB [6] = assay: LPS-induced NF-κB activation in NF-κB-RE-Luc reporter mouse; type: in vivo; conditions: intraperitoneal, 2 h before LPS; BANA 10, 20 and 30 mg/kg; BA 30 mg/kg; DMF 30 mg/kg
# Experimental: To determine whether BANA was capable of preventing LPS-induced NF-κB activation, intraperitoneal administration of BANA (10, 20, and 30 mg/kg) were followed by LPS intraperitoneal administration to an NF-κB-reporter transgenic mouse.
structure (smiles),measurement,setting,value
"O=C(O)c1ccc(/C=C/[N+](=O)[O-])cc1 [BANA, (E)-4-(2-nitrovinyl) benzoic acid]","levels of mRNA coding for TNFα, MCP-1 and IL-6",NF-κB [1],potently prevented; also recorded: abrogated
same,"LPS-induced NF-κB-dependent transcription of CCL2/MCP1, IL-6, IL-1β and TNFα (RT-qPCR)",NF-κB [2],prevented
same,LPS/ATP-induced inflammasome activation (release of IL-1β adjusted to pro-IL-1β),inflammasome,inhibited
same,IC50,"[3]; Mus musculus, BV-2, BV2 cells, BANA 5-110 μM, 24 h, sulforhodamine B",51.7 µM
same,toxicity to BV2 microglia,[3]; low micromolar concentrations,devoid of toxicity
same,CC50 at 24 h,[4],50 µM
same,NF-kB luminescence in right hindlimb after sciatic nerve section,NF-kB,significantly prevented
same,TNFα-induced NF-κB activation,NF-κB [5],potently prevented
same,LPS-induced NF-κB activation in vivo,NF-κB [6],significantly decreased; also recorded: significantly inhibited

# Reference: US20260060947A1 (INSTITUT PASTEUR DE MONTEVIDEO, priority 2019, published 2026)
